{"source": "ChEMBL document CHEMBL4229367", "about": "“Identification of multi-target inhibitors of leukotriene and prostaglandin E2 biosynthesis by structural tuning of the FLAP inhibitor BRP-7” (Eur J Med Chem, 2018)", "key": {"[1]": {"biological_target": "T1, Arachidonate 5-lipoxygenase-activating protein (Homo sapiens) (UniProt P20292)", "T1 sequence (whole entry)": "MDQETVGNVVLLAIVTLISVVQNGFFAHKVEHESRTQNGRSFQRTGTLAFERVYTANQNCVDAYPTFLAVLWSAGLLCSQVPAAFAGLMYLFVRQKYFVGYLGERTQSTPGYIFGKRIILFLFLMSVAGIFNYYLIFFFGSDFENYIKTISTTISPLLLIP", "assay": "Inhibition of FLAP in A23187-stimulated human neutrophils assessed as remaining enzyme activity by measuring 5-LO product formation at 0.1 uM preincubated for 15 mins followed by A23187 and arachidonic acid addition and measured after 10 mins by UV based RP-HPLC analysis (reference value: 100%)"}, "[2]": {"biological_target": "T1, Arachidonate 5-lipoxygenase-activating protein (Homo sapiens)", "assay": "Inhibition of FLAP in A23187-stimulated human neutrophils assessed as remaining enzyme activity by measuring 5-LO product formation at 1 uM preincubated for 15 mins followed by A23187 and arachidonic acid addition and measured after 10 mins by UV based RP-HPLC analysis (reference value: 100%)"}, "[3]": {"biological_target": "T2, Arachidonate 5-lipoxygenase-activating protein (Homo sapiens, UniProt P20292)", "T2 sequence (P20292 whole entry)": "T1 sequence (whole entry)", "assay": "Inhibition of FLAP in A23187-stimulated human neutrophils assessed as reduction in 5-LO product formation preincubated for 15 mins followed by A23187 and arachidonic acid addition and measured after 10 mins by UV based RP-HPLC analysis"}, "[4]": {"biological_target": "T2, Arachidonate 5-lipoxygenase-activating protein", "assay": "Inhibition of FLAP in A23187-stimulated human monocytes assessed as reduction in 5-LO product formation preincubated for 15 mins followed by A23187 and arachidonic acid addition and measured after 10 mins by UV based RP-HPLC analysis", "type": "cell-based"}, "[5]": {"biological_target": "T3, Polyunsaturated fatty acid 5-lipoxygenase (Homo sapiens, UniProt P09917)", "T3 sequence (P09917 whole entry)": "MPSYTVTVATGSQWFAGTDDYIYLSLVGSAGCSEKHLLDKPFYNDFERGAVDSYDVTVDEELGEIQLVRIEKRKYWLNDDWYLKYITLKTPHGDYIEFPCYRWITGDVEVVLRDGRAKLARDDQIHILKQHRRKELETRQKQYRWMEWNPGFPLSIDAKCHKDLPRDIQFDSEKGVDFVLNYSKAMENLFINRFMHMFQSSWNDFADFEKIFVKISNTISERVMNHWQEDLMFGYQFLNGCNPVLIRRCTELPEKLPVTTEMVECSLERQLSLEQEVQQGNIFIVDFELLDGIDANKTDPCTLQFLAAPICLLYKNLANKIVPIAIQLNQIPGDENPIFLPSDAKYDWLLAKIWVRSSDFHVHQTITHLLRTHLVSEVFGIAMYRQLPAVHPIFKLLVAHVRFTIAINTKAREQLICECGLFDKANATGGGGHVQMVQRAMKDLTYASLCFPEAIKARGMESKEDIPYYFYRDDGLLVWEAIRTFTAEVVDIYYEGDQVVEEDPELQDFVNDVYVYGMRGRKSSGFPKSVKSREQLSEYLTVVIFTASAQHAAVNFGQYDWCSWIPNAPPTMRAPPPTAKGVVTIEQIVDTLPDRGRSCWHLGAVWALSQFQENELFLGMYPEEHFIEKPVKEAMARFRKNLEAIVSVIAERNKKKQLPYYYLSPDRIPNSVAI", "assay": "Inhibition of 5-LO in A23187-stimulated human neutrophils assessed as reduction in 5-LO product formation preincubated for 15 mins followed by A23187 and 10 uM arachidonic acid addition and measured after 10 mins by UV based RP-HPLC analysis"}, "[6]": {"biological_target": "T4, Leukotriene C4 synthase (Homo sapiens, UniProt Q16873)", "T4 sequence (Q16873 whole entry)": "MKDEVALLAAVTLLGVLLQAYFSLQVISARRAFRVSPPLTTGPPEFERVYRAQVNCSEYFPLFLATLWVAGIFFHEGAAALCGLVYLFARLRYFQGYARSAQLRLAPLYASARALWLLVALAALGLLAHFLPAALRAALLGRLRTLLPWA", "assay": "Inhibition of LTC4 synthase in LPS/fMLP-stimulated human monocytes assessed as decrease in cys-LT formation pre-incubated with LPS for 30 mins and later stimulated with fMLP for 10 mins by ELISA", "type": "cell-based"}, "[7]": {"biological_target": "T5, Polyunsaturated fatty acid 5-lipoxygenase (Homo sapiens) (UniProt P09917)", "T5 sequence (whole entry)": "T3 sequence (P09917 whole entry)", "assay": "Inhibition of recombinant human 5-LO expressed in Escherichia coli BL21 at 10 uM incubated for 15 mins prior to prewarming for 30 secs followed by CaCl2+ and arachidonic acid addition and measured after 10 mins by RP-HPLC analysis"}, "[8]": {"biological_target": "T6, Prostaglandin E synthase (Homo sapiens) (UniProt O14684)", "T6 sequence (whole entry)": "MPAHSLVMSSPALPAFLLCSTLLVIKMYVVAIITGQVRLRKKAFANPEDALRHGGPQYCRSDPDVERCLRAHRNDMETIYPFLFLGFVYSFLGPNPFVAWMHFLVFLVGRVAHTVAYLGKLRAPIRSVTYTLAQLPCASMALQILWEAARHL", "assay": "Inhibition of mPGES1 in IL-1beta-stimulated human A549 cell microsomal fractions assessed as reduction in PGE2 production at 3 uM preincubated for 15 mins followed by PGH2 substrate addition and measured after 1 min by RP-HPLC analysis relative to control"}}, "data": [{"smiles": "CC(C)Cc1ccc(C(C)c2nc3cc(CCC(=O)O)ccc3n2Cc2ccccc2Cl)cc1", "note": "(stereo not drawn)", "values": [{"measurement": "Activity", "setting": "[1]", "result": 32.1, "unit": "%"}, {"measurement": "Activity", "setting": "[2]", "result": 0, "unit": "%"}, {"measurement": "IC50", "setting": "[3]", "result": 50, "unit": "nM"}, {"measurement": "IC50", "setting": "[4]", "result": 70, "unit": "nM"}, {"measurement": "IC50", "setting": "[5]", "result": 60, "unit": "nM"}, {"measurement": "IC50", "setting": "[6]", "result": 30, "unit": "nM"}, {"measurement": "inhibition", "setting": "[7]", "result": 26, "unit": "%"}, {"measurement": "inhibition", "setting": "[8]", "result": "> 50", "unit": "%"}]}]}
